Patent US20240208981A1, “NITROGEN-CONTAINING HETEROCYCLIC POLYCYCLIC COMPOUND, PREPARATION METHOD THEREFOR, AND APPLICATION THEREOF” (Shanghai Hansoh Biomedical Co., Ltd., priority 2021, published 2024)

Columns and labels:
human OX2R = human OX2R (Homo sapiens (Human), UniProt O43614); assay: Calcium flux in cells stably expressing OX2 receptor (FLIPR, Fluo-8 AM); format: cell-based; conditions: for IC50: CHO-K1/human OX2R cells, inhibition of calcium flux, agonist OX-B at EC80; for Selectivity multiple: OX1R IC50 versus OX2R IC50
Procedure: (§1) To determine the inhibitory effect of the compounds on calcium flux in CHO-K1/human OX1R and CHO-K1/human OX2R cells.
(§2) • 1) CHO-K1/human OX1R and CHO-K1/human OX2R cell lines were cultured separately in complete medium at 37° C., 5% CO2 to 70%˜90% confluence; • 2) A 384-well cell culture plate was coated with 1× Matrigel (5 uL per well) at room temperature for 10-30 minutes; • 3) The cells were digested and resuspended in cell inoculation medium. CHO-K1/human OX1R and CHO-K1/human OX2R cell lines were inoculated into two 384-well cell culture plates respectively (8,000 cells/well/20 μL). The culture plates were incubated at 37 °C, 5% CO2 for 24 hours; • 4) The cell culture plates were taken out of the CO2 incubator and equilibrated at room temperature for 10 minutes; • 5) 1000× Fluo-8 AM was diluted with assay buffer 1 equilibrated to room temperature to obtain 1× Fluo-8 AM at a concentration of 2 μM; • 6) The culture medium in the cell culture plate was removed, and 20 μL of 1× Fluo-8 AM was added to each well. The plates were centrifuged at room temperature at 300 rpm for 60 seconds, and incubated at room temperature in the dark for 1 hour; • 7) Determination of EC80 of OX1 and OX2 receptors agonists (OX-A for OX1R assays, OX-B for OX2R assays): OX1 and OX2 receptors agonists working solutions were diluted and prepared respectively. The diluted OX1 and OX2 receptors agonists were added using FLIPR Tetra to the experimental wells of the 384-well cell culture plates corresponding to CHO-K1/human OX1R and CHO-K1/human OX2R cell lines. The data were collected, and EC80 of OX-A and OX-B was obtained according to the following experimental data processing method; • 8) Steps 1 to 7 were repeated. […] After 15 minutes, OX1 and OX2 receptors agonists were added to the plates of the two cell lines respectively according to the previously obtained EC80. The data were collected, and the IC50 of the positive compounds and the test compounds was determined.
(§3) Fluorescence signal value (RFU) was collected with FLIPR Tetra.

human OX1R = human OX1R (Homo sapiens (Human), UniProt O43613); assay: Calcium flux in cells stably expressing OX1 receptor (FLIPR, Fluo-8 AM); format: cell-based; conditions: CHO-K1/human OX1R cells; inhibition of calcium flux, agonist OX-A at EC80
Procedure: as §1, §2, §3

CYP450 1A2 = CYP450 1A2 (Homo sapiens (Human), UniProt P05177)
Procedure: (§4) The human liver microsome incubation system was used to rapidly predict the inhibitory effect of the compounds on CYP450 enzyme subtypes by using single-point method.
(§5) The compound of the example to be tested was weighed, diluted to 10 mM with DMSO, and then diluted to 100 μM with 100 mM phosphate buffer.
(§6) • 1. 40 μL of liver microsomes, 10 μL of substrate, and 10 μL of the test compound were added to a 96-well plate, and pre-incubated for 3 minutes. • 2. 40 μL of NADPH was added. • 3. 300 μL of acetonitrile stop solution containing an internal standard was added at 20 minutes. • 4. The sample was injected […].

CYP450 2C9 = CYP450 2C9 (Homo sapiens (Human), UniProt P11712); assay: CYP enzyme single point inhibition assay, human liver microsomes, 2C9; format: in vitro ADME; conditions: single-point method
Procedure: as §4, §5, §6

CYP450 2D6 = CYP450 2D6 (Homo sapiens (Human), UniProt P10635); assay: CYP enzyme single point inhibition assay, human liver microsomes, 2D6; format: in vitro ADME; conditions: single-point method
Procedure: as §4, §5, §6

in vivo = conditions: male, SD, rat, po, 5 mg/kg
Procedure: SD rats were used as test animals.
The plasma samples were stored at −80° C.

Chain of human OX2R (O43614 whole entry): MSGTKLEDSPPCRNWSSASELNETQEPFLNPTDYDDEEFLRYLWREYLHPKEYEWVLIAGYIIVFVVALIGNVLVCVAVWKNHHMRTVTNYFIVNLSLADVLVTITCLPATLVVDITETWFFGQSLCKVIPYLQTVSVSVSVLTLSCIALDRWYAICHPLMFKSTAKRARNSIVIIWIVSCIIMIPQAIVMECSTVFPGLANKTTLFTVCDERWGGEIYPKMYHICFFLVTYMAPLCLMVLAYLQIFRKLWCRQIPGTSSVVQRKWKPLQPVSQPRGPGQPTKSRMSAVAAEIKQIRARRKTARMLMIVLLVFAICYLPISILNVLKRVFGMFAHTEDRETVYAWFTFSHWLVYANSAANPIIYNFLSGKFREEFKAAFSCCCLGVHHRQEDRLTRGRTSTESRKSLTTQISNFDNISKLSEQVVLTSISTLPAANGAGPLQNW
Chain of CYP450 1A2 (P05177 whole entry): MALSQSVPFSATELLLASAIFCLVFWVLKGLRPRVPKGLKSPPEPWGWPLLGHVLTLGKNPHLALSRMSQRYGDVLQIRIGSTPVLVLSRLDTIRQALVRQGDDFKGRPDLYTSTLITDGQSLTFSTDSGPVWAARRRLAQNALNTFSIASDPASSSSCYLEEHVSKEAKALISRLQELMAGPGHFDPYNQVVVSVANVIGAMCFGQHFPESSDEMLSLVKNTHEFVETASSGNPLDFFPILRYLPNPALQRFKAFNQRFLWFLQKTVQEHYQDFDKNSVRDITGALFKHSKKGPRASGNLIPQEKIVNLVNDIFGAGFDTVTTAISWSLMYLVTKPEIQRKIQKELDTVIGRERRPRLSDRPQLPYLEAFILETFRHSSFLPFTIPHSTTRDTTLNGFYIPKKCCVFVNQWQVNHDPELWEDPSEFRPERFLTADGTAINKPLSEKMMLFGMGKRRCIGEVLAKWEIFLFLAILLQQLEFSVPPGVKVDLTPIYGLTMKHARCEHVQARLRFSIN
Chain of human OX1R (O43613 whole entry): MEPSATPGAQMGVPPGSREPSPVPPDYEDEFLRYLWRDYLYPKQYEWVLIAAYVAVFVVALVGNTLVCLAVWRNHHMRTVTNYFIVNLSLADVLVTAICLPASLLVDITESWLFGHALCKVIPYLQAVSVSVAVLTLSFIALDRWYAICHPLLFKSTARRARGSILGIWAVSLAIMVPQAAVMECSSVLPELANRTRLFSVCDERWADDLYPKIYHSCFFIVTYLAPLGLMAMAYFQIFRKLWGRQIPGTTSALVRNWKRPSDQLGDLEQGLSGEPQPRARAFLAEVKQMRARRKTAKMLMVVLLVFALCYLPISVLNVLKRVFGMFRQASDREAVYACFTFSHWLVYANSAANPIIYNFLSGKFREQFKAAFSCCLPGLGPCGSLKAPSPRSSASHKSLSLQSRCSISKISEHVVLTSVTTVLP
Chain of CYP450 2C9 (P11712 whole entry): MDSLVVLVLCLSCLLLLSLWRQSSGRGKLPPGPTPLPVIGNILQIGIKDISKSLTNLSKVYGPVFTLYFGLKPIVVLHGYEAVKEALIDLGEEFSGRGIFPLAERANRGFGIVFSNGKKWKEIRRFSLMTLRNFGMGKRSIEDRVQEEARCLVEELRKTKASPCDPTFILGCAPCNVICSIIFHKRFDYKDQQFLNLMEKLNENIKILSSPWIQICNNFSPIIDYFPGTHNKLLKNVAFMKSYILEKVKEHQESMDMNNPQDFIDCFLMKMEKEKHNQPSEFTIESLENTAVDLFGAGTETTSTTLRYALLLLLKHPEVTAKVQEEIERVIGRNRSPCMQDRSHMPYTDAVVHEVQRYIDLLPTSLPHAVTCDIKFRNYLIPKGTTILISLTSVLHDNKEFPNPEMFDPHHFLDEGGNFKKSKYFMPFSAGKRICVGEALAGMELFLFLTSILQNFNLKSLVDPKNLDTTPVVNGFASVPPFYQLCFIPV
Chain of CYP450 2D6 (P10635 whole entry): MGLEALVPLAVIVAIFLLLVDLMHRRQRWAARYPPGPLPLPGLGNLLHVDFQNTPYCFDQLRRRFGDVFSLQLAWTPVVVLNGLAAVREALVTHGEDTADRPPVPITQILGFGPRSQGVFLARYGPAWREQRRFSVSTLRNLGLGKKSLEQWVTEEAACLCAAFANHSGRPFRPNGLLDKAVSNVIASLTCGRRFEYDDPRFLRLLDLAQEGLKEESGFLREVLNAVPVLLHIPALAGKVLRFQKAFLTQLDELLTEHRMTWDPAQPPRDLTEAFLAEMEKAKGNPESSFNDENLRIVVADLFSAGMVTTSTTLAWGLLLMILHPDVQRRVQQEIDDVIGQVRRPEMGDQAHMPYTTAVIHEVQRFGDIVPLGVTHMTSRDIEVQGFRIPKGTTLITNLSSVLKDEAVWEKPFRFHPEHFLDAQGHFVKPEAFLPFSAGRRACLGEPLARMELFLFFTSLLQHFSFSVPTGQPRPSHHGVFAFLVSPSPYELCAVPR

| SMILES | IC50 (human OX2R) | Selectivity multiple (human OX2R) | IC50 (human OX1R) | IC50 (CYP450 1A2) | IC50 (CYP450 2C9) | IC50 (CYP450 2D6) | AUC(0-inf) (in vivo) | Cmax (in vivo) | Tmax (in vivo) |
| --- | --- | --- | --- | --- | --- | --- | --- | --- | --- |
| Cc1ccc(N2C[C@H]3CN(C(=O)c4c(F)cccc4-n4nccn4)C[C@H]3C2)nc1C(C)(C)O [Compound 48, (2-fluoro-6-(2H-1,2,3-triazol-2-yl)phenyl)((3aR,6aS)-5-(6-(2-hydroxypropan-2-yl)-5-methylpyridin-2-yl)hexahydropyrrolo[3,4-c]pyrrol-2(1H)-yl)methanone] | 0.0745 µM | 328 | 24.4 µM |  |  |  |  |  |  |
| Cc1cc(C)nc(N2C[C@H]3CN(C(=O)c4ccccc4OC(F)(F)C(F)F)C[C@H]3C2)n1 [Compound 45, ((3aR,6aS)-5-(4,6-dimethylpyrimidin-2-yl)hexahydropyrrolo[3,4-c]pyrrol-2(1H)-yl)(2-(1,1,2,2-tetrafluoroethoxy)phenyl)methanone] | 0.0522 µM | 83 | 4.33 µM |  |  |  |  |  |  |
| Cc1cc(N2C[C@H]3CN(C(=O)c4c(O)cccc4-n4nccn4)C[C@H]3C2)nc(C(C)(C)O)c1 [Compound 85, (2-hydroxy-6-(2H-1,2,3-triazol-2-yl)phenyl)((3R,6S)-5-(6-(2-hydroxypropan-2-yl)-4-methylpyridin-2-yl)hexahydropyrrolo[3,4-c]pyrrol-2(1H)-yl)methanone] | 0.0585 µM | 234 | 13.7 µM |  |  |  |  |  |  |
| Cc1cc(C(C)(C)O)nc(N2C[C@H]3CN(C(=O)c4c(F)cccc4-n4nccn4)C[C@H]3C2)n1 [Compound 3, (2-fluoro-6-(2H-1,2,3-triazol-2-yl)phenyl)((3aR,6aS)-5-(4-(2-hydroxypropan-2-yl)-6-methylpyrimidin-2-yl)hexahydropyrrolo[3,4-c]pyrrol-2(1H)-yl)methanone] | 0.0444 µM | 83 | 3.7 µM |  |  |  |  |  |  |
| Cc1cc(N2C[C@H]3CN(C(=O)c4c(F)cccc4-n4nccn4)C[C@H]3C2)nc(C(C)(C)O)c1 [Compound 60, (2-fluoro-6-(2H-1,2,3-triazol-2-yl)phenyl)((3R,6S)-5-(6-(2-hydroxypropan-2-yl)-4-methylpyridin-2-yl)hexahydropyrrolo[3,4-c]pyrrol-2(1H)-yl)methanone] | 0.0552 µM | 244 | 13.5 µM | > 100 µM |  |  |  |  |  |
| CC(C)(O)c1nc(N2C[C@H]3CN(C(=O)c4c(F)cccc4-n4nccn4)C[C@H]3C2)ccc1F [Compound 91, ((3aR,6aS)-5-(5-fluoro-6-(2-hydroxypropanyl)pyridin-2-yl)hexahydropyrrolo[3,4-c]pyrrol-2(1H)-yl)(2-fluoro-6-(2H-1,2,3-triazol-2-yl)phenyl)methanone] | 0.0359 µM | 88 | 3.16 µM |  |  |  |  |  |  |
| Cc1nc(N2C[C@H]3CN(C(=O)c4c(F)cccc4-c4ccccn4)C[C@H]3C2)nc(C(C)(C)O)c1F [Compound 97, ((3aR,6aS)-5-(5-fluoro-4-(2-hydroxypropan-2-yl)-6-methylpyrimidin-2-yl)hexahydropyrrolo[3,4-c]pyrrol-2(1H)-yl)(2-fluoro-6-(pyridin-2-yl)phenyl)methanone] |  | 36 |  |  |  |  |  |  |  |
| Cc1nc(N2C[C@H]3CN(C(=O)c4ccc(F)cc4-n4nccn4)C[C@H]3C2)nc(C(C)(C)O)c1F [Compound 94, (4-fluoro-2-(2H-1,2,3-triazol-2-yl)phenyl)((cis)-5-(5-fluoro-4-(2-hydroxypropan-2-yl)-6-methylpyrimidin-2-yl)hexahydropyrrolo[3,4-c]pyrrol-2(1H)-yl)methanone] | 0.0252 µM | 48 | 1.2 µM |  |  |  |  |  |  |
| CC(C)(O)c1nc(N2C[C@H]3CN(C(=O)c4c(F)cccc4-c4ncccn4)C[C@H]3C2)ncc1F [Compound 93, ((3aR,6aS)-5-(5-fluoro-4-(2-hydroxypropan-2-yl)pyrimidin-2-yl)hexahydropyrrolo[3,4-c]pyrrol-2(1H)-yl)(2-fluoro-6-(pyrimidin-2-yl)phenyl)methanone] |  | 122 |  | > 100 µM | > 100 µM | > 100 µM |  |  |  |
| Cc1nc(N2C[C@H]3CN(C(=O)c4cccc(F)c4-n4nccn4)C[C@H]3C2)nc(C(C)(C)O)c1F [Compound 95, (3-fluoro-2-(2H-1,2,3-triazol-2-yl)phenyl)((cis)-5-(5-fluoro-4-(2-hydroxypropan-2-yl)-6-methylpyrimidin-2-yl)hexahydropyrrolo[3,4-c]pyrrol-2(1H)-yl)methanone] |  | 49 |  | > 100 µM | > 100 µM | > 100 µM |  |  |  |
| Cc1cc(C)nc(N2C[C@H]3CN(C(=O)c4c(F)cccc4-n4ncc(C5CC5)n4)C[C@H]3C2)n1 [Compound 43, (2-(4-cyclopropyl-2H-1,2,3-triazol-2-yl)-6-fluorophenyl)((3aR,6aS)-5-(4,6-dimethylpyrimidin-2-yl)hexahydropyrrolo[3,4-c]pyrrol-2(1H)-yl)methanone] | 0.0999 µM | 102 | 10.2 µM |  |  |  |  |  |  |
| Cc1cc(C)nc(N2C[C@H]3CN(C(=O)c4ccccc4-c4nc5ccccc5o4)C[C@H]3C2)n1 [Compound 50, (2-(benzooxazol-2-yl)phenyl)((3aR,6aS)-5-(4,6-dimethylpyrimidin-2-yl)hexahydropyrrolo[3,4-c]pyrrol-2(1H)-yl)methanone] | 0.0711 µM | 82 | 5.84 µM |  |  |  |  |  |  |
| Cc1cc(C(C)(C)O)nc(N2C[C@H]3CN(C(=O)c4c(F)cccc4-c4ncccn4)C[C@H]3C2)n1 [Compound 56, (2-fluoro-6-(pyrimidin-2-yl)phenyl)((3R,6S)-5-(4-(2-hydroxypropan-2-yl)-6-methylpyrimidin-2-yl)hexahydropyrrolo[3,4-c]pyrrol-2(1H)-yl)methanone] | 0.0082 µM | 405 | 3.32 µM |  |  |  |  |  |  |
| Cc1cc(C(C)(C)F)nc(N2C[C@H]3CN(C(=O)c4c(F)cccc4-n4nccn4)C[C@H]3C2)n1 [Compound 57, (2-fluoro-6-(2H-1,2,3-triazol-2-yl)phenyl)((3aR,6aS)-5-(4-(2-fluoropropan-2-yl)-6-methylpyrimidin-2-yl)hexahydropyrrolo[3,4-c]pyrrol-2(1H)-yl)methanone] | 0.0097 µM | 314 | 3.05 µM |  |  |  | 279 ng·h/mL | 110 ng/mL | 30 min |
